According to patent US20260256792A1, “TREATMENT OF CHRONIC SPONTANEOUS URTICARIA BY ADMINISTERING (R)-2-[3-[4-AMINO-3-(2-FLUORO-4-PHENOXY-PHENYL)PYRAZOLO[3,4-D]PYRIMIDIN-1-YL]PIPERIDINE-1-CARBONYL]-4-METHYL-4-[4-(OXETAN-3-YL)PIPERAZIN-1-YL]PENT-2-ENENITRILE” (priority 2023, published 2026):

Tested on: moderate-to-severe chronic spontaneous urticaria (CSU)
Assay: Phase 2 CSU study: hives severity score over 7 days (HSS7)
Type: in vivo, human
Design: key to HSS7 Change from baseline, Median / HSS7, Median / HSS7, Max / HSS7 Change from baseline, Q1 / HSS7 Change from baseline, Q3 / HSS7 Change from baseline, Max: 7-day sum of daily hive scores, each 0 = none to 3 = >50 hives
Excerpt: The study comprises a 12 week, randomized, double-blind, placebo-controlled, multi-center, dose-ranging efficacy and safety phase, followed by a 40 week open label extension (OLE) phase (see FIG. 1).
The study consists of three phases and an optional OLE phase.
The UAS is a validated PRO measure. The daily UAS is the sum of the daily Hive Severity Score (HSS, ranging from 0=None to 3=more than 50 hives) and the daily Itch Severity Score (ISS, ranging from 0=None to 3=intense), the 2 key urticaria signs and symptoms which are wheals and itch. The daily UAS scores range from 0 to 6 point/day. Daily UAS scores are summed over 7-day period to create the UAS7, ranging from 0 to 42, and are composed of the HSS7 and ISS7 components. […] Patients were to complete the UAS using the e-diary. The e-diary was to be used once daily on the same time of each day recording of participant's answers to the urticaria activity score over 7 days (UAS7) questionnaire. For participants who entered the OLE phase, their answers to the UAS7 questionnaire were also to be collected from Week 20 to Week24 and from Week 48 to Week 52.
The following secondary endpoints were to be analyzed using the same approach as for the primary endpoint: • Change from baseline in UAS7 at Week 4 • Change from baseline in UAS7 at Week 12 (for US and US reference countries) • Change from baseline in ISS7 at Week 12 (except US and US reference countries) • Change from baseline in HSS7 at Week 12

[1] = Week 1, 400 mg BID, Omalizumab-Naïve Population
[2] = Week 1, 400 mg BID, Patients with Prior Omalizumab Use
[3] = Week 1, 400 mg QPM, Omalizumab-Naïve Population
[4] = Week 1, 400 mg QPM, Patients with Prior Omalizumab Use
[5] = Week 1, 400 mg TID, Omalizumab-Naïve Population
[6] = Week 1, 400 mg TID, Patients with Prior Omalizumab Use
[7] = Week 2, 400 mg BID, Omalizumab-Naïve Population
[8] = Week 2, 400 mg BID, Patients with Prior Omalizumab Use
[9] = Week 2, 400 mg QPM, Omalizumab-Naïve Population
[10] = Week 2, 400 mg QPM, Patients with Prior Omalizumab Use
[11] = Week 2, 400 mg TID, Omalizumab-Naïve Population
[12] = Week 2, 400 mg TID, Patients with Prior Omalizumab Use
[13] = Week 3, 400 mg BID, Omalizumab-Naïve Population
[14] = Week 3, 400 mg BID, Patients with Prior Omalizumab Use
[15] = Week 3, 400 mg QPM, Omalizumab-Naïve Population
[16] = Week 3, 400 mg QPM, Patients with Prior Omalizumab Use
[17] = Week 3, 400 mg TID, Omalizumab-Naïve Population
[18] = Week 3, 400 mg TID, Patients with Prior Omalizumab Use

## CC(C)(C=C(C#N)C(=O)N1CCC[C@@H](n2nc(-c3ccc(Oc4ccccc4)cc3F)c3c(N)ncnc32)C1)N1CCN(C2COC2)CC1 [rilzabrutinib, (R)-2-[3-[4-amino-3-(2-fluoro-4-phenoxy-phenyl)pyrazolo[3,4-d]pyrimidin-1-yl]piperidine-1-carbonyl]-4-methyl-4-[4-(oxetan-3-yl)piperazin-1-yl]pent-2-enenitrile]
Omalizumab-naïve Population, 400 mg TID, ANCOVA
  HSS7 change from baseline at Week 12, LS Mean Diff vs. placebo: −3.24
[1]
  HSS7, Mean (SD): 9.26 (5.76)
  HSS7 Change from baseline, Mean (SD): −5.02 (4.53)
  HSS7 Change from baseline, Median: −5.00
  HSS7 Percent change from baseline, Mean (SD): −36.53 (34.65) %
  HSS7 Percent change from baseline, Median: −28.57%
[2]
  HSS7, Mean (SD): 9.67 (6.41)
  HSS7 Change from baseline, Mean (SD): −5.50 (6.41)
  HSS7 Change from baseline, Median: −3.00
  HSS7 Percent change from baseline, Mean (SD): −34.45 (41.48) %
  HSS7 Percent change from baseline, Median: −17.65%
[3]
  HSS7, Mean (SD): 10.73 (4.90)
  HSS7 Change from baseline, Mean (SD): −4.00 (4.92)
  HSS7 Change from baseline, Median: −3.00
  HSS7 Percent change from baseline, Mean (SD): −25.31 (29.00) %
  HSS7 Percent change from baseline, Median: −20.00%
[4]
  HSS7, Mean (SD): 12.00 (NC)
  HSS7, Median: 12.00
  HSS7 Change from baseline, Mean (SD): −8.00 (NC)
  HSS7 Change from baseline, Median: −8.00
  HSS7 Percent change from baseline, Mean (SD): −40.00 (NC) %
  HSS7 Percent change from baseline, Median: −40.00%
[5]
  HSS7, Mean (SD): 8.26 (4.91)
  HSS7, Median: 8.00
  HSS7 Change from baseline, Mean (SD): −5.40 (5.44)
  HSS7 Change from baseline, Median: −5.00
  HSS7 Percent change from baseline, Mean (SD): −36.74 (35.15) %
  HSS7 Percent change from baseline, Median: −33.33%
[6]
  HSS7, Mean (SD): 4.83 (3.31)
  HSS7, Median: 4.50
  HSS7 Change from baseline, Mean (SD): −11.19 (4.74)
  HSS7 Percent change from baseline, Mean (SD): −70.33 (16.48) %
  HSS7 Percent change from baseline, Median: −71.43%
[7]
  HSS7, Mean (SD): 9.27 (5.49)
  HSS7, Median: 7.50
  HSS7 Change from baseline, Mean (SD): −5.10 (4.74)
  HSS7 Change from baseline, Median: 5.50
  HSS7 Percent change from baseline, Mean (SD): −35.29 (34.55) %
  HSS7 Percent change from baseline, Median: −37.50%
[8]
  HSS7, Mean (SD): 8.17 (7.08)
  HSS7, Median: 9.50
  HSS7 Change from baseline, Mean (SD): −7.00 (8.15)
  HSS7 Change from baseline, Median: −4.50
  HSS7 Percent change from baseline, Mean (SD): −42.16 (46.38) %
  HSS7 Percent change from baseline, Median: −26.47%
[9]
  HSS7, Mean (SD): 10.90 (4.97)
  HSS7 Change from baseline, Mean (SD): −3.83 (4.91)
  HSS7 Change from baseline, Median: 3.00
  HSS7 Percent change from baseline, Mean (SD): −23.50 (30.60) %
  HSS7 Percent change from baseline, Median: −21.43%
[10]
  HSS7, Mean (SD): 13.00 (NC)
  HSS7, Median: 13.00
  HSS7 Change from baseline, Mean (SD): −7.00 (NC)
  HSS7 Change from baseline, Median: −7.00
  HSS7 Percent change from baseline, Mean (SD): −35.00 (NC) %
  HSS7 Percent change from baseline, Median: −35.00%
[11]
  HSS7, Mean (SD): 7.25 (5.05)
  HSS7, Median: 7.00
  HSS7 Change from baseline, Mean (SD): −6.40 (5.94)
  HSS7 Change from baseline, Median: −6.00
  HSS7 Percent change from baseline, Mean (SD): −44.30 (37.78) %
  HSS7 Percent change from baseline, Median: −42.86%
[12]
  HSS7, Mean (SD): 2.83 (3.31)
  HSS7, Median: 1.50
  HSS7 Change from baseline, Mean (SD): −13.19 (5.74)
  HSS7 Change from baseline, Median: −14.00
  HSS7 Percent change from baseline, Mean (SD): -82.7%
  HSS7 Percent change from baseline, Median: −81.38%
[13]
  HSS7, Mean (SD): 8.55 (6.09)
  HSS7, Median: 7.00
  HSS7 Change from baseline, Mean (SD): −5.73 (5.31)
  HSS7 Change from baseline, Median: −5.00
  HSS7 Percent change from baseline, Mean (SD): −40.65 (36.39) %
  HSS7 Percent change from baseline, Median: −41.67%
[14]
  HSS7, Mean (SD): 7.67 (7.00)
  HSS7, Median: 7.50
  HSS7 Change from baseline, Mean (SD): −7.50 (8.22)
  HSS7 Change from baseline, Median: −6.00
  HSS7 Percent change from baseline, Mean (SD): −45.10 (46.71) %
  HSS7 Percent change from baseline, Median: −35.29%
[15]
  HSS7, Mean (SD): 10.41 (4.97)
  HSS7, Median: 9.00
  HSS7 Change from baseline, Mean (SD): −4.32 (4.60)
  HSS7 Change from baseline, Median: −2.00
  HSS7 Percent change from baseline, Mean (SD): −27.98 (28.68) %
  HSS7 Percent change from baseline, Median: −28.57%
[16]
  HSS7, Mean (SD): 10.00 (NC)
  HSS7 Change from baseline, Mean (SD): −10.00 (NC)
  HSS7 Change from baseline, Median: −10.00
  HSS7 Percent change from baseline, Mean (SD): −50.00 (NC) %
  HSS7 Percent change from baseline, Median: −50.00%
[17]
  HSS7, Mean (SD): 7.03 (4.82)
  HSS7, Median: 7.00
  HSS7 Change from baseline, Mean (SD): −6.63 (6.22)
  HSS7 Change from baseline, Median: −7.00
  HSS7 Percent change from baseline, Mean (SD): −47.46 (36.18) %
  HSS7 Percent change from baseline, Median: −48.81%
[18]
  HSS7, Mean (SD): 3.39 (2.63)
  HSS7, Median: 2.67
  HSS7 Change from baseline, Mean (SD): −12.64 (6.13)
  HSS7 Change from baseline, Median: −14.50
  HSS7 Percent change from baseline, Mean (SD): −76.71 (14.38) %
  HSS7 Percent change from baseline, Median: −71.43%
